# Source: ChEMBL document CHEMBL1201862, “PubChem BioAssay data set” (2004)
# Calls of active or inactive are those of the source. Cut-off read from the data, not from the text of the source, for most assays here: actives have a measured IC50 and inactives only a lower limit.
# What was measured:
# [1] = NIH-3T3 fibroblast cytotoxicity, dose response, cytotoxicity control, cell-based, fluorescence, Alamar Blue, secondary assay (AID 2327); format: functional;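 note: NIH-3T3 mouse fibroblasts cultured with fluconazole at 8 µg/mL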
# [2] = target: T1, SUMO-activating enzyme (Homo sapiens, UniProt Q9UBT2); experiment: blockers of UBC9-mediated SUMO conjugation – biochemical, AlphaScreen, SUMOylation inhibitor project, confirmation (AID 2018); format: functional
# [3] = fluconazole-exposed Candida albicans growth modulators – fluorescence, retest, confirmation (AID 2467); format: functional, cell-based
# [4] = target: T1, SUMO-activating enzyme; experiment: blockers of SAE1/SAE2–UBC9 SUMO transfer – biochemical, HTRF, uHTS, primary screen (AID 2006); format: protein-complex assay
# [5] = target: T2, Caspase-3 (Homo sapiens, UniProt P42574); format: functional;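 note: Dose-response selectivity test against caspase-3 for candidate inhibitors of sentrin-specific proteases (SENPs)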
# T2 sequence (P42574 whole entry): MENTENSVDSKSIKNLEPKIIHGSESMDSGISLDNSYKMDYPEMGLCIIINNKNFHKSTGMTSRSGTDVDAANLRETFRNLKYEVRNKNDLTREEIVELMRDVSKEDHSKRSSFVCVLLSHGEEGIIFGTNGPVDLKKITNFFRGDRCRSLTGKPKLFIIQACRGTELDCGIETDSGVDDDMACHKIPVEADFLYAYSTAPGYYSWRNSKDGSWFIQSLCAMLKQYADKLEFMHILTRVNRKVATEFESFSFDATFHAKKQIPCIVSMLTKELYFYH
# [6] = target: T3, Sentrin-specific protease 7 (Homo sapiens, UniProt Q9BQF6); format: functional;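 note: Luminescence-based dose-response confirmation of ultra-high-throughput screening hits, measuring inhibition of SENP7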
# T3 sequence (Q9BQF6 whole entry): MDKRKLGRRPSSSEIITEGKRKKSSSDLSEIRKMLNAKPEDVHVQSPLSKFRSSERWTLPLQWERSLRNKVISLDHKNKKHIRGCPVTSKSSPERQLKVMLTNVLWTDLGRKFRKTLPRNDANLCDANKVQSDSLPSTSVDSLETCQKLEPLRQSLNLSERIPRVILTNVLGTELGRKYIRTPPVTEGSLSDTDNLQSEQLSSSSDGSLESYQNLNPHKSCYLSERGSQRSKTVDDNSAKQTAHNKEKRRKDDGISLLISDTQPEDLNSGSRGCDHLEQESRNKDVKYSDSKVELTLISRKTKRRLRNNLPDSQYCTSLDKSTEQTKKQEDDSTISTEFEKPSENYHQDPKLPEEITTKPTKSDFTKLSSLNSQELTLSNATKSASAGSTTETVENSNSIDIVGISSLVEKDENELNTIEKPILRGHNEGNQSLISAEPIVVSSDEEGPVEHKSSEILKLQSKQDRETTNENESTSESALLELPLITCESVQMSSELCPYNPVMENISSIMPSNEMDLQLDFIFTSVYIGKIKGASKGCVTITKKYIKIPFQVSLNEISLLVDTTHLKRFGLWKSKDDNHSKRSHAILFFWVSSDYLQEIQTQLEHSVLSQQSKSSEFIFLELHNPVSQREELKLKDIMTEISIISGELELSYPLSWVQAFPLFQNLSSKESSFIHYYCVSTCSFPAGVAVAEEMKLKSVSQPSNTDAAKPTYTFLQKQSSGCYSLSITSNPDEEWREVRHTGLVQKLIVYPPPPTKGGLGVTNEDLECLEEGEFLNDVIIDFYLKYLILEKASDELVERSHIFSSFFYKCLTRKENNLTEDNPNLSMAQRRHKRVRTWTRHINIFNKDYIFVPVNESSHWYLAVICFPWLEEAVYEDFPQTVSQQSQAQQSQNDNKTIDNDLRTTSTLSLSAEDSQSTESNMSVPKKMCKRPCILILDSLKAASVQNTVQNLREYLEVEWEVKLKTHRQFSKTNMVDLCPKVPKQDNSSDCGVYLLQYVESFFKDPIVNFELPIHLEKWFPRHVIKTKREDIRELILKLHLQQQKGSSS
# [7] = target: T4, Sentrin-specific protease 6 (Homo sapiens, UniProt Q9GZR1); format: functional;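 note: Luminescence-based dose-response confirmatory assay of SENP6 inhibition, following up an ultra-high-throughput screen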
# T4 sequence (Q9GZR1 whole entry): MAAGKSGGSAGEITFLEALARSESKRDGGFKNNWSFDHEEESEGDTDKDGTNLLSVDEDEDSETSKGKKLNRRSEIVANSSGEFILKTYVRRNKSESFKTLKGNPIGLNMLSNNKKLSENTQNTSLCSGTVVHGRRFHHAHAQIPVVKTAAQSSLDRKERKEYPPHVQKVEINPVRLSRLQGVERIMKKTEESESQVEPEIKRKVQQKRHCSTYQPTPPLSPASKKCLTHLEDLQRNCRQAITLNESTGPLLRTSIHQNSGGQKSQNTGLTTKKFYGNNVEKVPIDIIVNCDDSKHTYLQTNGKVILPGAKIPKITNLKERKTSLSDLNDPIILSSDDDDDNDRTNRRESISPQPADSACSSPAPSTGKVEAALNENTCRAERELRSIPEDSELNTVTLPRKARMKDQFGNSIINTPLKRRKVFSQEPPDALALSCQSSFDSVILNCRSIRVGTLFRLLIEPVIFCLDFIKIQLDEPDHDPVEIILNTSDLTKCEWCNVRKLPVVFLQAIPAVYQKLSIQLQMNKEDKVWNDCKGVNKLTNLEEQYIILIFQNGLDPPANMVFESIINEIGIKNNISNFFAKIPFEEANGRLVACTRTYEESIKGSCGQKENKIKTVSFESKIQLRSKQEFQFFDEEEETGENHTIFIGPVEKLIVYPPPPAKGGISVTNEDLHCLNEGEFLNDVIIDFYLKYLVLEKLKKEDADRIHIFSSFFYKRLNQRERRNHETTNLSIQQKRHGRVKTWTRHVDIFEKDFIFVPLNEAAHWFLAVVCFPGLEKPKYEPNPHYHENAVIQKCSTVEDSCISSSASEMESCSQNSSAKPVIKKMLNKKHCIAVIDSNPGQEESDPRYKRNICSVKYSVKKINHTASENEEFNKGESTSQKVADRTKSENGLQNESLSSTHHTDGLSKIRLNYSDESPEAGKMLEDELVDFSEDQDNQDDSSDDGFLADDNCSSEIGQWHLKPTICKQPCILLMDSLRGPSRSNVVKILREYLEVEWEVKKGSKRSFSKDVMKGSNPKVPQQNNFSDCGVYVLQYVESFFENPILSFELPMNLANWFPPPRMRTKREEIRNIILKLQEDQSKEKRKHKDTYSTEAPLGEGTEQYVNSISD
# [8] = target: T5, Sentrin-specific protease 8 (Homo sapiens, UniProt Q96LD8); format: functional;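 note: luminescence read-out of SENP8 inhibition, dose-response confirmation following an ultra-high-throughput screen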
# T5 sequence (Q96LD8 whole entry): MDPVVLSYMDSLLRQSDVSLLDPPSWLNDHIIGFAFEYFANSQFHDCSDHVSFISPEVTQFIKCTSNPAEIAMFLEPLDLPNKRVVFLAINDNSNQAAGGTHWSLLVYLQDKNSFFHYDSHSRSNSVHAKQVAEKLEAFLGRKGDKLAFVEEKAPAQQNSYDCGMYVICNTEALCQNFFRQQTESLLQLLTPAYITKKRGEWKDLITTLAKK
# [9] = tested on: INS1; experiment: INS-1E survival protection against cytokine death – cell-based, luminescence, retest, dose response (AID 449756); format: functional; settings: Rattus norvegicus;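 note: cell death triggered by IL-1 beta plus TNF-alpha plus IFN-gamma mixture; protective hits raise ATP signal compared with cytokine alone wells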
# [10] = target: T6, Long-chain-fatty-acid--AMP ligase FadD28 (Mycobacterium tuberculosis, UniProt P9WQ59); experiment: Fluorescence polarization aasay to screen for inhibitors that compete for the binding of FadD28 to a bisubstrate Measured in Biochemical System Using Plate Reader - 2147-01_Inhibitor_Dose_CherryPick_Activity.; format: functional, Mycobacterium tuberculosis H37Rv
# T6 sequence (P9WQ59 whole entry): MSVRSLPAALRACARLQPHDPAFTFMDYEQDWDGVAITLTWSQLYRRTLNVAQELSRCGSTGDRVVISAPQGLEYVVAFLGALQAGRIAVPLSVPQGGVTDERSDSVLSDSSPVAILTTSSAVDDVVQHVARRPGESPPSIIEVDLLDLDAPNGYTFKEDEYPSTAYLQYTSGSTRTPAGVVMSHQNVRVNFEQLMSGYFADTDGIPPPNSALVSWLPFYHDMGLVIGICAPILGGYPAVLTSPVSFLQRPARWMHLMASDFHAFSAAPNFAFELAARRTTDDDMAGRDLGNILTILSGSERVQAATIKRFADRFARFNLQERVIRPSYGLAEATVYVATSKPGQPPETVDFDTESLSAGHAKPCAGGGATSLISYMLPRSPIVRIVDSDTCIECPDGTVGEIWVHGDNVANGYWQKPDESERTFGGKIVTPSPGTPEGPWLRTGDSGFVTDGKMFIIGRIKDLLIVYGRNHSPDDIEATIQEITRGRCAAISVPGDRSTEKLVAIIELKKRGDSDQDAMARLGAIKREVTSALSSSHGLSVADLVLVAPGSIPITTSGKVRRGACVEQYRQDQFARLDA
# [11] = target: Albumin (Bos taurus, UniProt P02769); experiment: Counterscreen for inhibitors of T-cell receptor (TCR)-CD3 interaction: Fluorescence-based biochemical high throughput dose response assay to identify inhibitors of T-cell receptor (TCR)-CD3 interaction using a TAMRA-labeled BSA probe.; format: functional
# Albumin, sequence (P02769 whole entry): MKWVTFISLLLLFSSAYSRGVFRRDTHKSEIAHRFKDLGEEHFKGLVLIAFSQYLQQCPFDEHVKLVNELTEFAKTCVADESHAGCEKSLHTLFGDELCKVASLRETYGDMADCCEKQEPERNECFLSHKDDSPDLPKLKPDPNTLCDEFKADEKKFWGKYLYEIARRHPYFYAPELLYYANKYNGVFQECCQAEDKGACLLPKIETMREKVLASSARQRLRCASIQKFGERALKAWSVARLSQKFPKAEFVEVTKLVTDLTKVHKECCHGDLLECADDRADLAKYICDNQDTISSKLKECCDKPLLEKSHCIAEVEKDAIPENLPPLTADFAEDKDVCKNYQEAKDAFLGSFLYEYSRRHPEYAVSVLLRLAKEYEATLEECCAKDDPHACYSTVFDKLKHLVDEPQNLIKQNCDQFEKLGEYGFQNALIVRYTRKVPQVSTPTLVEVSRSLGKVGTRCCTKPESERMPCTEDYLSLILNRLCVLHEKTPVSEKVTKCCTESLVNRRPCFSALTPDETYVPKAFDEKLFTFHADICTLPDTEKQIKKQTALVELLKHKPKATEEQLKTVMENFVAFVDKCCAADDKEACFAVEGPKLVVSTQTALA
# T1 sequence (Q9UBE0 whole entry): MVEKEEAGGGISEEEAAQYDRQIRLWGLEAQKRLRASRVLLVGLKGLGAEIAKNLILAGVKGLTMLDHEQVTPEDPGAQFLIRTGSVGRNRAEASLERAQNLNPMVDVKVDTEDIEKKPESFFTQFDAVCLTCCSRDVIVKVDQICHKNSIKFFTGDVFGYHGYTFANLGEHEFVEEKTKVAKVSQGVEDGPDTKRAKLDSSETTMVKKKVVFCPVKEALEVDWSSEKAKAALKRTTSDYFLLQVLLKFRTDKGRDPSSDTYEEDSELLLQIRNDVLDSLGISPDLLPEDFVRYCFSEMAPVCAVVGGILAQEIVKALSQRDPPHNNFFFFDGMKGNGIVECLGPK
# T1 sequence (Q9UBT2 whole entry): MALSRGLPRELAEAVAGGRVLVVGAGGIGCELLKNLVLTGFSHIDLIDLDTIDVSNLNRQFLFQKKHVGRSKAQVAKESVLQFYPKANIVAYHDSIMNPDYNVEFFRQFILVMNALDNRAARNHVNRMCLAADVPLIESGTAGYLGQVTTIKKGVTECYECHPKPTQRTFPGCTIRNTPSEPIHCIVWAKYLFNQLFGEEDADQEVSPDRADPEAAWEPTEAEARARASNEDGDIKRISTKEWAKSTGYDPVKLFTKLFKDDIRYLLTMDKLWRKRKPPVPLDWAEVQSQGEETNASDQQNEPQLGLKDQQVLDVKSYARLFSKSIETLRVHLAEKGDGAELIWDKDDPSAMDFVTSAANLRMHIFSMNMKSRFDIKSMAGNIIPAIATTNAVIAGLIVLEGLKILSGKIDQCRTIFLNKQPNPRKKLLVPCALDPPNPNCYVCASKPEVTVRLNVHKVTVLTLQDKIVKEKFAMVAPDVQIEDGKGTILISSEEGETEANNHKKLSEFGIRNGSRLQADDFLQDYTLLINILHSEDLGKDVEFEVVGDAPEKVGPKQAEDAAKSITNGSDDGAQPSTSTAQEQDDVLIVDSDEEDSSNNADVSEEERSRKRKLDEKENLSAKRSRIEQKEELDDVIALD
compound,measurement,setting,value
O=[N+]([O-])c1ccc(O)c(/C=N/NC(=S)Nc2ccc(Cl)cc2Cl)c1,EC50,[1],> 160 µM (inactive)
same,IC50,[2],1.41 µM (active)
same,EC50,[3],3.32 µM (active)
same,IC50,[4],23.1 µM (active)
same,IC50,[5],28.3 µM (active)
same,IC50,[6],3.08 µM (active)
same,IC50,[7],3.15 µM (active)
same,IC50,[8],7.38 µM (active)
same,AC50,[9],1.72 µM (active)
same,AC50,[10],> 100 µM (inactive)
same,IC50,[11],> 94.1 µM (inactive)
